Consider 3 molecules from PubChem BioAssay (NCI).

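Method: 48-hour compound exposure of cells in 96-well plates, five concentrations, linear interpolation of endpoints. At the GI50, growth is halved. TGI denotes the concentration required for complete inhibition of growth.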

Common to all, as to assay: inhibition of tumour cell growth, NCI panel, 48 h
Experiment [1] concerns SF-268 CNS.
Experiment [2] has as its system RPMI-8226 leukemia.
The subject of experiment [3] is UACC-257 melanoma.
In experiment [4] the test system is OVCAR-8 ovarian.
In experiment [5] the test system is ACHN renal.
Experiment [6] relates to HT29 colon.
The test system of experiment [7] is SK-MEL-5 melanoma.
For experiment [8], the system named is HOP-62 NSCLC.
Experiment [9] deals with RXF 393 renal.
The subject of experiment [10] is CCRF-CEM leukemia.

`COc1cc(Oc2cnc3cc(N)cc(N)c3n2)cc(OC)c1OC`: the GI50 in [1] was 67.3 µM; in experiment [2] it was 21.9 µM; in [3], > 100 µM; in experiment [4], 58.8 µM; in [5], 24.3 µM; in experiment [6] it was 18.5 µM. For the same molecule, the GI50 was 39.5 µM in [7], 48.1 µM in experiment [8], 25.4 µM in [9] and 50.7 µM in experiment [10]. Besides, the TGI in [1] is > 100 µM; in experiment [2] it was 45 µM; in experiment [3] it was > 100 µM; in experiment [4], > 100 µM; in [5], 63.4 µM; in experiment [6], 40.4 µM. In addition, the TGI is > 100 µM in experiment [7], > 100 µM in [8], 89.8 µM in experiment [9] and > 100 µM in experiment [10].

Turning to `CC(=N\O)/C(C)=N/O.CC(=N\O)/C(C)=N/O.[Pd]`, the GI50 is 6.95 µM in experiment [1]; 7.39 µM in [2]; 3.15 µM in experiment [3]; 1.84 µM in experiment [4]; > 10 µM in experiment [5]; 2.77 µM in [6]. In addition, the GI50 in [7] was 1.81 µM; in experiment [8] it was 5.62 µM; in experiment [9] it was 3.42 µM; in [10], 2.04 µM. The TGI was > 10 µM in experiment [1]; > 10 µM in experiment [2]; > 10 µM in experiment [3]; 3.62 µM in experiment [4]; > 10 µM in experiment [5]; 7.99 µM in [6]. The TGI in [7] was 4.04 µM; in [8] it was > 10 µM; in experiment [9], 7.42 µM; in experiment [10], 6.13 µM.

Turning to `Nc1ccc(Cl)cc1.Nc1ccc(Cl)cc1.Nc1ccc(Cl)cc1.O=C([O-])C(=O)[O-].O=C([O-])C(=O)[O-].[H+].[Ru+5]`, the GI50 in experiment [1] was > 100 µM; in experiment [2], 0.147 µM; in experiment [5] it was 0.0696 µM; in experiment [8] it was 0.691 µM; in [9] it was > 100 µM; in experiment [10], 0.176 µM. Also, the TGI in [1] is > 100 µM; in [2], > 100 µM; in experiment [3] it was > 100 µM; in [4] it was > 100 µM; in experiment [5], > 25.4 µM; in experiment [6], > 100 µM. Moreover, the results for the TGI in experiment [7], in experiment [9] and in experiment [10] were > 100 µM, > 100 µM and > 68 µM, respectively.
